Test results from PubChem BioAssay (NCI).
Where “and” joins values, the source holds several entries; their conditions need not be identical. Equal values may be shown once.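 Each compound was tested at five concentrations against cells in 96-well plates for 48 hours. GI50 marks 50% less growth. At the TGI there is no net growth.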

system: A498 renal; assay: DTP human tumour cell line panel, 48 h

| SMILES | GI50 | TGI |
| --- | --- | --- |
| C=COCCCOc1ccccc1 | > 100 µM | > 100 µM |
| COc1cc2nc(-c3ccc(Cl)cc3)cc(OCCCN3CCCCC3)c2cc1OC | 1.4 µM | 3.82 µM |
| C=C(c1nc2ccc(Cl)cc2[nH]c1=O)C(O)c1ccc(C(O)C(=O)c2nc3ccc(Cl)cc3[nH]c2=O)cc1 (stereo unspecified) | – | > 100 µM |
| O=c1c2sc(=S)n(-c3ccc(F)cc3)c2ncn1Cc1ccc(F)cc1F | > 100 µM | > 100 µM |
| COc1cc(C#CC(=O)OC/C=C/c2ccc3c(c2)OCO3)cc(OC)c1OC | – | 21.5 µM |
| O=C1NC(=O)C(c2cnc3ccccn23)=C1c1cn2c3c(cc(F)cc13)CN(C(=O)N1CCCCC1)CC2 | 0.0108 µM | 11.5 µM |
| Clc1nc2ccccc2nc1CI | 20.5 µM | 42.9 µM |
| Cn1nc(N)c2cc([C@@H]3Nc4ccc5[nH]ncc5c4[C@H]4C5CCC(C5)[C@@H]34)ccc21 (stereo partly specified) | 0.225 µM | 1.15 µM |
| O=C(O)C1C2C=CC(O2)C1C(=O)NCc1ccccn1 (stereo unspecified) | – | > 100 µM |
| O=C(OC(CNc1cc(=O)n(Cc2ccccc2)c(=O)n1Cc1ccccc1)CN1CCCC1)c1ccccc1 (stereo unspecified) | > 100 µM | > 100 µM |
| CCN(CC)CCCC(CNc1ccnc2cc(Cl)ccc12)c1ccc(Cl)cc1 (stereo unspecified) | 1.83 µM and 1.35 µM | 3.33 µM and 2.8 µM |
| CCOC(=O)CCCn1c(SC)nc2[nH]cc(-c3ccccc3)c2c1=O | 16.5 µM | 63.3 µM |
| CCN(CC)CCOc1ccc(-c2nc3cc(Cl)ccc3s2)cc1 | 1.66 µM | 3.83 µM |
| CNC(=O)N(C)N=NCCCl | – | > 100 µM |
| CCN1CCN(C(c2ccc(C(F)(F)F)cc2)c2ccc3cccnc3c2O)CC1 (stereo unspecified) | 2.31 µM | 14.1 µM |
| CC(C)=CC/C=C(/C)[C@H]1CC[C@]2(C)[C@@H]1CC[C@@H]1[C@@]3(C)CCCNC(C)(C)[C@@H]3CC[C@]12C | 13.8 µM | 29.3 µM |
| O=C1c2cccc(NCCCNCCO)c2C(=O)c2cccc(NCCCNCCO)c21 | – | 4.66 µM and 7.58 µM |
| N#CC(=C1C=CC(=NO)C=C1)c1ccccc1 | 5.33 µM | 22.8 µM |
| CCCCCCCCCCCCCC1=NC(C)(C)CN1C(C)C | 2.16 µM | 4.58 µM |
| CC(C)=CCNc1ncnc2c1ncn2C1OC(CO)C(O)C1O (stereo unspecified) | 0.405 µM | 1.51 µM |
| COc1ccc(CN2C(=O)/C(=C\C(=O)c3ccc(OCCN4CCCCC4)cc3)c3ccccc32)cc1 | 13.5 µM | 27 µM |
| CCC(C)n1ncn(-c2ccc(N3CCN(c4ccc(OCC5COC(Cn6cncn6)(c6ccc(Cl)cc6Cl)O5)cc4)CC3)cc2)c1=O (stereo unspecified) | 10.8 µM | > 100 µM |
| NC(=O)NC1C(c2ccccc2)=C1c1ccccc1 | – | 39.9 µM |
| O=C(CNc1ccc(Cl)cc1)Nc1ccc(-c2nc3ccccc3s2)cc1 | 12.5 µM | 25 µM |
| CCCCCCCCCCCCOC1C(C(COC2OC(C3COC(C)(C)O3)C3OC(C)(C)OC23)NC(=O)Nc2ccc(C(=O)O)cc2)OC2OC(C)(C)OC21 (stereo unspecified) | 2.48 µM | 8.53 µM |
| CCN(CC)CCC(CNc1ccnc2cc(Cl)ccc12)c1ccc(OC)cc1 (stereo unspecified) | 3.82 µM and 3.49 µM | 13.4 µM and 14.1 µM |
| C=C1C(=O)OC2CCN3CC=C(COC(=O)C(C)(O)C4(CO4)C1C)C23 (stereo unspecified) | – | > 100 µM |
| CS(=O)(=O)Nc1ccc2c(c1)oc(=O)c1ccccc12 | – | > 100 µM |

system: UO-31 renal; assay: DTP human tumour cell line panel, 48 h

| SMILES | TGI | GI50 |
| --- | --- | --- |
| C=COCCCOc1ccccc1 | > 100 µM | – |
| C=C(c1nc2ccc(Cl)cc2[nH]c1=O)C(O)c1ccc(C(O)C(=O)c2nc3ccc(Cl)cc3[nH]c2=O)cc1 (stereo unspecified) | > 100 µM | – |
| O=c1c2sc(=S)n(-c3ccc(F)cc3)c2ncn1Cc1ccc(F)cc1F | > 100 µM | > 100 µM |
| COc1cc(C#CC(=O)OC/C=C/c2ccc3c(c2)OCO3)cc(OC)c1OC | 37 µM | – |
| O=C1NC(=O)C(c2cnc3ccccn23)=C1c1cn2c3c(cc(F)cc13)CN(C(=O)N1CCCCC1)CC2 | > 65.5 µM | 2.54 µM |
| Clc1nc2ccccc2nc1CI | 5.17 µM | 2.05 µM |
| Cn1nc(N)c2cc([C@@H]3Nc4ccc5[nH]ncc5c4[C@H]4C5CCC(C5)[C@@H]34)ccc21 (stereo partly specified) | 40.8 µM | 0.831 µM |
| O=C(O)C1C2C=CC(O2)C1C(=O)NCc1ccccn1 (stereo unspecified) | > 100 µM | – |
| O=C(OC(CNc1cc(=O)n(Cc2ccccc2)c(=O)n1Cc1ccccc1)CN1CCCC1)c1ccccc1 (stereo unspecified) | > 100 µM | > 100 µM |
| CCN(CC)CCCC(CNc1ccnc2cc(Cl)ccc12)c1ccc(Cl)cc1 (stereo unspecified) | 2.24 µM and 2.31 µM | 0.891 µM and 0.974 µM |
| CCOC(=O)CCCn1c(SC)nc2[nH]cc(-c3ccccc3)c2c1=O | 57.9 µM | 19.9 µM |
| CCN(CC)CCOc1ccc(-c2nc3cc(Cl)ccc3s2)cc1 | 3.37 µM | 1.66 µM |
| CNC(=O)N(C)N=NCCCl | > 100 µM | – |
| CCN1CCN(C(c2ccc(C(F)(F)F)cc2)c2ccc3cccnc3c2O)CC1 (stereo unspecified) | 9.04 µM | 1.59 µM |
| CC(C)=CC/C=C(/C)[C@H]1CC[C@]2(C)[C@@H]1CC[C@@H]1[C@@]3(C)CCCNC(C)(C)[C@@H]3CC[C@]12C | 23.4 µM | 10.1 µM |
| O=C1c2cccc(NCCCNCCO)c2C(=O)c2cccc(NCCCNCCO)c21 | 22.2 µM and 21.4 µM | – |
| N#CC(=C1C=CC(=NO)C=C1)c1ccccc1 | 19 µM | 3.45 µM |
| CCCCCCCCCCCCCC1=NC(C)(C)CN1C(C)C | 2.69 µM | 1.39 µM |
| CC(C)=CCNc1ncnc2c1ncn2C1OC(CO)C(O)C1O (stereo unspecified) | 50 µM | 6.94 µM |
| COc1ccc(CN2C(=O)/C(=C\C(=O)c3ccc(OCCN4CCCCC4)cc3)c3ccccc32)cc1 | 2.92 µM | 1.57 µM |
| CCC(C)n1ncn(-c2ccc(N3CCN(c4ccc(OCC5COC(Cn6cncn6)(c6ccc(Cl)cc6Cl)O5)cc4)CC3)cc2)c1=O (stereo unspecified) | > 100 µM | 30 µM |
| NC(=O)NC1C(c2ccccc2)=C1c1ccccc1 | 28.8 µM | – |
| O=C(CNc1ccc(Cl)cc1)Nc1ccc(-c2nc3ccccc3s2)cc1 | 15.4 µM | 4.03 µM |
| CCCCCCCCCCCCOC1C(C(COC2OC(C3COC(C)(C)O3)C3OC(C)(C)OC23)NC(=O)Nc2ccc(C(=O)O)cc2)OC2OC(C)(C)OC21 (stereo unspecified) | 13.3 µM | 3.99 µM |
| CCN(CC)CCC(CNc1ccnc2cc(Cl)ccc12)c1ccc(OC)cc1 (stereo unspecified) | 4.35 µM and 11.6 µM | 1.54 µM and 1.88 µM |
| C=C1C(=O)OC2CCN3CC=C(COC(=O)C(C)(O)C4(CO4)C1C)C23 (stereo unspecified) | > 100 µM | – |
| CS(=O)(=O)Nc1ccc2c(c1)oc(=O)c1ccccc12 | > 100 µM | – |

system: RXF 393 renal; assay: DTP human tumour cell line panel, 48 h

| SMILES | TGI | GI50 |
| --- | --- | --- |
| C=COCCCOc1ccccc1 | > 100 µM | – |
| COc1cc2nc(-c3ccc(Cl)cc3)cc(OCCCN3CCCCC3)c2cc1OC | 3.9 µM | 1.08 µM |
| C=C(c1nc2ccc(Cl)cc2[nH]c1=O)C(O)c1ccc(C(O)C(=O)c2nc3ccc(Cl)cc3[nH]c2=O)cc1 (stereo unspecified) | > 100 µM | – |
| O=c1c2sc(=S)n(-c3ccc(F)cc3)c2ncn1Cc1ccc(F)cc1F | > 100 µM | > 100 µM |
| COc1cc(C#CC(=O)OC/C=C/c2ccc3c(c2)OCO3)cc(OC)c1OC | 30.2 µM | – |
| O=C1NC(=O)C(c2cnc3ccccn23)=C1c1cn2c3c(cc(F)cc13)CN(C(=O)N1CCCCC1)CC2 | 14.7 µM | 0.0224 µM |
| Clc1nc2ccccc2nc1CI | 11.7 µM | 3.08 µM |
| Cn1nc(N)c2cc([C@@H]3Nc4ccc5[nH]ncc5c4[C@H]4C5CCC(C5)[C@@H]34)ccc21 (stereo partly specified) | 0.825 µM | 0.227 µM |
| O=C(O)C1C2C=CC(O2)C1C(=O)NCc1ccccn1 (stereo unspecified) | > 100 µM | – |
| O=C(OC(CNc1cc(=O)n(Cc2ccccc2)c(=O)n1Cc1ccccc1)CN1CCCC1)c1ccccc1 (stereo unspecified) | > 100 µM | 76.1 µM |
| CCN(CC)CCCC(CNc1ccnc2cc(Cl)ccc12)c1ccc(Cl)cc1 (stereo unspecified) | 3.01 µM and 2.51 µM | 1.4 µM and 1.03 µM |
| CCOC(=O)CCCn1c(SC)nc2[nH]cc(-c3ccccc3)c2c1=O | 49 µM | 18.2 µM |
| CCN(CC)CCOc1ccc(-c2nc3cc(Cl)ccc3s2)cc1 | 2.77 µM | 1.01 µM |
| CNC(=O)N(C)N=NCCCl | > 100 µM | – |
